Assay results taken from BindingDB's records for patent US12509446 (Rottapharm Biotech, 2025).

Legend:
[1] = target: Vascular endothelial growth factor receptor 2 (Homo sapiens, UniProt P35968); assay: In Vitro Kinase Activity Assay
Method: Table 12: The VEGFR2 kinase inhibitory activity of representative examples of compounds of Formula (I) assays was evaluated in Eurofins Cerep (France). The concentration range of the inhibitors under investigation was from 10−8 M up to 10−5 M final concentration. Some compounds were re-tested in a concentration-range starting from 10−9 M. The results are expressed as a percent of control activity (in the absence of test compound) and the IC50 values were determined by non-linear regression analysis of the inhibition/concentration curves generated with mean replicate values.

[2] = target: Tyrosine-protein kinase Fyn (Homo sapiens, UniProt P06241); assay: In Vitro Kinase Activity Assay
Method: Table 11: The Fyn kinase inhibitory activity of representative examples of compounds of Formula (1) was evaluated by Z′-LYTE™ Kinase Assay Platform (Invitrogen). Compounds were evaluated towards active Fyn (full length active, molecular weight 87.1 kDa; Invitrogen). […] Samples representing the 0% inhibition (or total enzymatic activity) were in the presence of compound diluent (1% DMSO final in Reaction Buffer 50 mMHepes, 10 mM MgCl2, 1 mM EGTA, 0.01% Brij-35, pH 7.5). The kinase reaction was carried out in a total volume of 10 μl, for 60 minutes at 25° C. The 0% Phosphorylation (i.e. no ATP) and 100% Phosphorylation Assay Controls, included in each plate, allowed to calculate the percent phosphorylation achieved in the specific reaction well. Results are expressed as percentage of inhibition and the IC50 values were calculated by non-linear curve fitting using GraphPad™ Prism software (version 6 for Windows).

Vascular endothelial growth factor receptor 2, sequence (P35968 whole entry): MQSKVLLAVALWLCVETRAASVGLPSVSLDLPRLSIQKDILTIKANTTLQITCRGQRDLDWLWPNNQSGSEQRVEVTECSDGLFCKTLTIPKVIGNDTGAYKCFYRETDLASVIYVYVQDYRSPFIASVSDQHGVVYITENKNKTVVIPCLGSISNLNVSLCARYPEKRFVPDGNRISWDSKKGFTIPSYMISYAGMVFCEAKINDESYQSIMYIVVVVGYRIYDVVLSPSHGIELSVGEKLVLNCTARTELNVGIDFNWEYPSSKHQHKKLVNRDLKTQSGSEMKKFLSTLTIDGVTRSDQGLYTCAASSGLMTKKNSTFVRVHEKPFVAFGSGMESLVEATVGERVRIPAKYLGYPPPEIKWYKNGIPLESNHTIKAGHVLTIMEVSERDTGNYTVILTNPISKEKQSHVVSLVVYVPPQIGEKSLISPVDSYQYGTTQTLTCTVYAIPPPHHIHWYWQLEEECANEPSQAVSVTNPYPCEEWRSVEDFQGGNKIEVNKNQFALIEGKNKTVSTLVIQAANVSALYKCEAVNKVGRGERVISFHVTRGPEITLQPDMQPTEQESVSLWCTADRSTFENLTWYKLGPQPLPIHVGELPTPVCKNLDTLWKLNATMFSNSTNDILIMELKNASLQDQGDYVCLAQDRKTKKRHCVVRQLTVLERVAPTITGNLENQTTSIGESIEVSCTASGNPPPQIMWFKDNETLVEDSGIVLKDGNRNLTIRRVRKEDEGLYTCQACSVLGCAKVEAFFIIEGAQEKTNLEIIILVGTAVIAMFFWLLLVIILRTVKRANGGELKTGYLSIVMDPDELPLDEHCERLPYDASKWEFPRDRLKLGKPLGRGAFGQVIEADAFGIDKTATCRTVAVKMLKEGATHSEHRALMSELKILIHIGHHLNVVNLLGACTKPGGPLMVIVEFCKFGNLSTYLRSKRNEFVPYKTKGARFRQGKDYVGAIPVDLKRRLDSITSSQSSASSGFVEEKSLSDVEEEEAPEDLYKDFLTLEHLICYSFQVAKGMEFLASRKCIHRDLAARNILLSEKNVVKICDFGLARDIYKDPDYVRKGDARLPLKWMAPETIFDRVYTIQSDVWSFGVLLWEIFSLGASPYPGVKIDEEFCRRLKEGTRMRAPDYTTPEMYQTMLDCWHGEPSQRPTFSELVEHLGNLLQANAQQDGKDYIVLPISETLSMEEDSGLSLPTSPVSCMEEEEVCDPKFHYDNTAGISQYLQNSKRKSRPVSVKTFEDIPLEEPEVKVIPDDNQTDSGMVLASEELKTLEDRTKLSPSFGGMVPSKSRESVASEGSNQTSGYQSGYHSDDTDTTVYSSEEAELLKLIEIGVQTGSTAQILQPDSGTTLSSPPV
Tyrosine-protein kinase Fyn, sequence (P06241 whole entry): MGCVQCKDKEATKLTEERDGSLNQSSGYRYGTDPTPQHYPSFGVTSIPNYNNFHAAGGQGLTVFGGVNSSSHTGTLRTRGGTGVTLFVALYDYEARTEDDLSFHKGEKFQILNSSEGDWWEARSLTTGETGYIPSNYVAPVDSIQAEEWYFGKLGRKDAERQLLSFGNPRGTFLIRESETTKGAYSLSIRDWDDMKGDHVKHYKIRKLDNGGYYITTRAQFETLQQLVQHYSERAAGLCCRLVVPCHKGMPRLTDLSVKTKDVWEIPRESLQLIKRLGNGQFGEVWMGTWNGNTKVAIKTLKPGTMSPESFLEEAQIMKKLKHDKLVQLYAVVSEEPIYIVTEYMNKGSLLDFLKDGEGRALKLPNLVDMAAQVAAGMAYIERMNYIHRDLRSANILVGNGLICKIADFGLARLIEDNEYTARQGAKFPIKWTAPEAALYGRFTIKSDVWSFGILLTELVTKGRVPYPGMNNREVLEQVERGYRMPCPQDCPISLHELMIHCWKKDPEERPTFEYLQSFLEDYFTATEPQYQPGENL

IC50 [1] | IC50 [2] | SMILES
< 10 nM | 8 nM | Cc1nc(Nc2cc(CCc3ccc(F)c(NC(=O)c4cccc(C(F)(F)F)c4)c3)n[nH]2)cc(N2CCN(CCO)CC2)n1 [US12509446, Compound 44]
< 10 nM | 22 nM | CCN1CCN(c2cc(Nc3cc(CCc4ccc(F)c(NC(=O)c5cccc(C(F)(F)F)c5)c4)n[nH]3)nc(C)n2)CC1 [US12509446, Compound 45]
18 nM | 10 nM | Cc1nc(Nc2cc(CCc3cc(NC(=O)c4cccc(C(F)(F)F)c4)ccc3F)n[nH]2)cc(N2CC(O)C2)n1 [US12509446, Compound 31]
< 10 nM | 18 nM | Cc1nc(Nc2cc(CCc3ccc(F)c(NC(=O)c4cccc(C(F)(F)F)c4)c3)n[nH]2)cc(N2CC(O)C2)n1 [US12509446, Compound 46]

The next lines start with the compound.

SMILES | IC50 [1] | IC50 [2]
CCN1CCN(c2cc(Nc3cc(CCc4cc(NC(=O)c5cccc(C(F)(F)F)c5)ccc4F)n[nH]3)nc(C)n2)CC1 [US12509446, Compound 29] | < 10 nM | 15 nM
Cc1nc(Nc2cc(CCc3cc(NC(=O)c4cccc(C(F)(F)F)c4)ccc3F)n[nH]2)cc(N2CCN(CCO)CC2)n1 [US12509446, Compound 30] | < 10 nM | 6 nM
Cc1ccc(NC(=O)c2cccc(S(C)(=O)=O)c2)cc1CCc1cc(Nc2cnccn2)[nH]n1 [US12509446, Compound 1] | < 10 nM | 36 nM
